The values that follow come from patent US20260174724A1, “COMPOSITION FOR PREVENTING AND/OR IMPROVING BRAIN DYSFUNCTION” (THE INSTITUTE OF BIOACTIVE PEPTIDES, priority 2024, published 2026).

In general, AUC(0-inf) refers to the area under the concentration-time curve extrapolated to infinity. A higher AUC(0-inf) goes with high exposure. In general, AUC(0-t) refers to exposure summed from dosing to a finite time, without extrapolation to infinity. One may read the Cmax as the highest concentration seen after dosing. Broadly, the Tmax is the time from dosing to the highest level. By half-life is commonly meant the time in which the quantity being followed falls by half. A higher half-life goes with slow decline.

The conditions of data set [1]: simulated gi fluid, 4 h, 1 mg/mL.
Protocol: • Solutions A-D and A1-D1 were prepared according to the following components and concentrations, with a volume of 10 mL each. The mixed solution was placed in a water bath at 37° C., and the content of the remaining DHM was determined by HPLC at different time intervals. • Solution A: SIF+DHM (1 mg/mL); • Solution B: SIF+DHM (1 mg/mL)+taurine (0.3 mg/mL) • Solution C: SIF+DHM (1 mg/mL)+L-theanine (0.4 mg/mL); • Solution D: SIF+DHM (1 mg/mL)+taurine (0.1 mg/mL)+L-theanine (0.1 mg/mL) • Solution A1: SIF+DHM (1 mg/mL)+Fe^3+ (50 μmol/L); • Solution B1: SIF+DHM (1 mg/mL)+taurine (0.3 mg/mL)+Fe^3+ (50 μmol/L); • Solution C1: SIF+DHM (1 mg/mL)+L-theanine (0.4 mg/mL)+Fe^3+ (50 μmol/L); • Solution D1: SIF+DHM (1 mg/mL)+taurine (0.1 mg/mL)+L-theanine (0.1 mg/mL)+Fe^3+ (50 μmol/L).
Data set [2] in a line: Bioavailability experiment: DHM concentration in plasma after gavage, LC-MS/MS. In kind it is in vivo. As to conditions: male SD rats, DHM 100 mg/kg. How it is done:
Experimental subject grouping: 24 male SD rats, weighing between 200-220 g, were randomly divided into four groups.
• Group A (control group): DHM was administered alone at a dose of 100 mg/kg. • Group B: DHM (100 mg/kg) was co-administered with L-theanine (10 mg/kg). • Group C: DHM (100 mg/kg) was co-administered with taurine (10 mg/kg). • Group D: DHM (100 mg/kg), L-theanine (10 mg/kg), and taurine (10 mg/kg) were co-administered.
The drug was mixed with 3 mL of 0.5% CMC-Na solution and administered by gavage.
At 0.1, 0.5, 1, 1.5, 2, 2.5, 3, 4, 6, 8, and 12 h after administration, 200 μL of blood samples were collected through the tail vein and placed in heparinized EP tubes.
The blood samples were centrifuged at 5000 rpm for 15 min at 4° C., and plasma was collected and stored at −20° C.
Before analysis, 30 μL of plasma sample was taken, 30 μL of internal standard (rutin) solution and 140 μL of 1% formic acid-acetonitrile solution were added, vortex oscillated for 1 min, centrifuged at 12000 rpm for 5 min, and 150 μL of supernatant was taken for LC-MS/MS analysis. Analysis purpose:
The concentration of DHM in plasma was determined at different time points to evaluate the effect of the composition on the bioavailability of DHM.

Data set [3] has as its system intracerebral hemorrhage (ICH) model of C57BL/6N mice. The experiment in a line: Cerebral hematoma experiment: collagenase-induced ICH model, hematoma volume by ImageJ. In kind it is in vivo. As to conditions: Day 1 after modeling; gavage 7 days before collagenase; FIG. 3. From the text: This experiment aims to evaluate the effect of different compositions on the hematoma volume in the intracerebral hemorrhage (ICH) model of C57BL/6N mice. A total of 72 male C57BL/6N mice, aged 8-10 weeks, were randomly divided into 6 groups and treated with gavage for 7 days. Subsequently, except for the sham operation group (CON), the remaining groups were induced the ICH model by collagenase method. […]
On the 1st and 3rd day after modeling, 6 mice were randomly selected from each group for decapitation and brain sampling. The brain tissue was cut into slices on ice, and the hematoma volume was calculated using ImageJ software.

In the case of `O=C1c2c(O)cc(O)cc2O[C@H](c2cc(O)c(O)c(O)c2)[C@H]1O` [DHM, dihydromyricetin], the “remaining amount of DHM” value in data set [1] is recorded as “below 50%”. In addition, in data set [2], the CL came out at 517 ± 62.4 L/h/kg. Besides, in data set [2] (rat, po), the AUC(0-inf) was 194 ng·h/mL, the AUC(0-t) was 172 ng·h/mL, the peak level (Cmax) was 118 ± 13.7 ng/mL and the Tmax is 0.83 ± 1.12 h. Moreover, the half-life in data set [2] (rat, po) is 1.91 ± 0.67 h.
Consider `O=C1c2c(O)cc(O)cc2O[C@H](c2cc(O)c(O)c(O)c2)[C@H]1O` [G1 group, dihydromyricetin], for which the “hematoma volume compared with the MOD group” value in data set [3] was “decreased”.
